Results taken from patent publication US20260108503A1, “POLYMERIC MICELLE NANOCARRIERS FOR TARGETED EPIDERMAL DELIVERY OF THE HEDGEHOG PATHWAY INHIBITOR TAK-441” (UNIVERSITÉ DE GENÈ DE GENÈVE, priority 2022, published 2026).
“Also recorded” adds a separate entry of the source.

Tests used:
[1] = Cutaneous delivery and biodistribution in vitro, Franz-type diffusion cells, human skin; assay type: in vitro ADME
Procedure: Human skin samples were obtained shortly after surgery from the Department of Plastic, Aesthetic and Reconstructive Surgery, Geneva University Hospital (Geneva, Switzerland), fatty tissue was removed and the skin was stored at −20° C. The donation was approved by the Central Committee for Ethics in Research (CER: 08-150 (NAC08-051); Geneva University Hospital).
The experiments were performed using standard two-compartment vertical (Franz-type) diffusion cells, (Milian SA; Meyrin, Switzerland) with a cross-sectional area of 2 cm^2. The receptor compartment consisted of 10-mL Dulbecco's phosphate-buffered saline (DPBS) pH 7.4 containing 1% BSA to maintain sink conditions. The receiver compartment was maintained between 32° C.-34° C. For infinite dose conditions, 200 μL of TAK-441 micelle formulation (3 mg/mL) was applied to the skin sample surface (i.e., 300 μg of TAK-441/cm^2 of the skin surface) and for finite dose, 20 μL of micelle formulation (3 mg/mL) was applied (30 μg of TAK-441/cm^2 of the skin surface). […]
(§1) TAK-441 had the least solubility in HPC; this characteristic would minimize the risk of interference of the suspending agent on drug delivery. […] After centrifugation at 10,000 rpm for 15 min, the permeation samples were analyzed by UHPLC-MS/MS. […]
(§2) Upon completion of the experiment, a punch was used to separate the skin sample into two parts—an inner disk with a surface area of 0.785 cm^2 and a remaining outer ring with an area of 1.215 cm^2. This outer ring was subsequently cut into small pieces, and TAK-441 deposited in the tissue was extracted by the validated extraction method (section 1.4.5.2) followed by quantification using UHPLC-MS/MS.
The 0.785-cm^2 disks were used to determine the TAK-441 biodistribution as a function of depth in the skin. […] These lamellae enabled the amounts of TAK-441 to be determined as a function of position in the skin, encompassing the stratum corneum, epidermis, and upper dermis, respectively. Each lamella and the remaining dermis were individually extracted in 250-μL methanol for 4 h and TAK-441 was quantified by UHPLC-MS/MS.

[2] = target: vismodegib-resistant SMO mutant D473H (Homo sapiens, UniProt Q99835, D473H); conditions: cited from earlier work
Sequence of vismodegib-resistant SMO mutant D473H (Q99835 28-787 D473H): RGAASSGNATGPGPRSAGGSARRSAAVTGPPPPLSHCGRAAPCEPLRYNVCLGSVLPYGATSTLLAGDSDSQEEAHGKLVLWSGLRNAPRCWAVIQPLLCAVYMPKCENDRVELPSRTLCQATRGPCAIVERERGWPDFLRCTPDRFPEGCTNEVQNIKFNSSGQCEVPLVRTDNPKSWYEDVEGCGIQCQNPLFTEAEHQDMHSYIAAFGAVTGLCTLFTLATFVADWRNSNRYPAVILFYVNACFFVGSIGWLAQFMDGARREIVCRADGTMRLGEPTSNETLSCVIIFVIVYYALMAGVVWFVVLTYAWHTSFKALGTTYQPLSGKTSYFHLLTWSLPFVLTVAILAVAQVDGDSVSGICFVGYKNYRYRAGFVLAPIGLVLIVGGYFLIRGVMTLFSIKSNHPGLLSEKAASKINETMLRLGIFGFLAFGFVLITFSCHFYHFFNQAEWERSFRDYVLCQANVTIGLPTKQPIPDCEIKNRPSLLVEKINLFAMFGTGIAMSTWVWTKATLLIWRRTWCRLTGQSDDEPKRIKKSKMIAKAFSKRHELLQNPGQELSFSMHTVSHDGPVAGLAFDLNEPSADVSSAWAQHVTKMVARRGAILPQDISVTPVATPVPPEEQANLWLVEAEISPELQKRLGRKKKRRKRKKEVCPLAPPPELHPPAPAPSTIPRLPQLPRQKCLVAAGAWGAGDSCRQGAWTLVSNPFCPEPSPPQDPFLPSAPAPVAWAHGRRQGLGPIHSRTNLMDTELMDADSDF

[3] = cited from earlier work
[4] = cited from earlier work; remark: listed apart in the source
[5] = tested on: Gli1 expression; conditions: oral, all doses (50 mg/day to 1600 mg/day); cited from earlier work
[6] = Cutaneous delivery and biodistribution in vitro, Franz-type diffusion cells, porcine skin; assay type: in vitro ADME; conditions: 12 h application
Description: Porcine ears were purchased from a local abattoir (CARRE; Rolle, Switzerland) shortly after sacrifice. After washing under running cold water, skin samples with a thickness of approximately 0.8 mm were carefully harvested from the outer region of the ear using a Zimmer air dermatome (Münsingen, Switzerland). Hair was removed from the skin surface using clippers. Discs corresponding to the permeation area were punched out (Berg & Schmid HK 500; Urdorf, Switzerland). Skin samples were frozen at −20° C. and stored for a maximum period of 3 months. Before the experiment, skin samples were thawed at room temperature and placed for 15 min in 0.9% saline solution for rehydration. […]
as §1
as §2, with “UHPLC-MS/MS. […]” for “UHPLC-MS/MS.”

[7] = Determination of TAK-441 content in the micelles (UHPLC-MS/MS); assay type: physicochemical; conditions: incorporation of TAK-441 in TPGS micelles
Procedure: TAK-441 loaded into the micelles was quantified by UHPLC-MS/MS. To ensure complete micelle destruction and release of the incorporated drug, formulations were diluted in acetonitrile and analyzed. The drug content, drug loading, and entrapment efficiency were calculated using equations 1-3: […]

[8] = tested on: HH pathway; conditions: NIH3T3 cells, Gli-reporter luciferase; read-out: IC50, inhibition of the hedgehog pathway; cited from earlier work
[9] = human, in vivo; cited from earlier work

Compound	cumulative permeation ([1]; conclusion, corresponding to LOD) [pg/cm^2]	concentrations in the permeation samples (below LOD) ([1]; conclusion, permeation samples, UHPLC-MS/MS) [ng/mL]	transdermal permeation across human skin ([1]; human skin, 12 h application)	activity against vismodegib-resistant Smoothened receptor D473H mutant [2]	log P [3]	death assessed to be study drug-related ([4]; cerebral hemorrhage, patient with pancreatic cancer)	patients who experienced at least one adverse effect (AE) ([4]; oral, Phase I)	patients who experienced serious AE ([4]; oral, Phase I)	Gli1 expression in skin biopsies [5]	cumulative permeation (receiver compartment below LOD) [6] [pg/cm^2]	increase of aqueous solubility [7]	IC50 [8] [nM]	treatment outcome in patients with resistance to vismodegib [9]
CCc1cc2c(c(OCC(F)(F)F)c(C(=O)NC3CCN(C(=O)CO)CC3)n2C)c(=O)n1CC(=O)c1ccccc1 [TAK-441]	< 0.1	< 1.29	below the LOD	active; also recorded: effective	2.61	One death	All patients	Approximately 35%	strongly inhibited	< 0.1	approximately 40 fold	4.4	–
Cc1c(C(=O)Nc2ccc(N3C[C@@H](C)O[C@@H](C)C3)nc2)cccc1-c1ccc(OC(F)(F)F)cc1 [sonidegib]	–	–	–	–	–	–	–	–	–	–	–	–	ineffective
